{"source": "patent US20260055079A1", "about": "“PHTHALAZINONE COMPOUNDS AS PARP7 INHIBITORS” (AZKARRA THERAPEUTICS, INC., priority 2022, published 2026)", "key": {"PARP4bc": {"biological_target": "PARP4bc (Homo sapiens, UniProt Q9UKK3)", "assay": "PASTA biochemical PARP screening assay, PARP4bc"}, "PARP8": {"biological_target": "PARP8 (Homo sapiens (Human), UniProt Q8N3A8)", "sequence (Q8N3A8 whole entry, species assumed)": "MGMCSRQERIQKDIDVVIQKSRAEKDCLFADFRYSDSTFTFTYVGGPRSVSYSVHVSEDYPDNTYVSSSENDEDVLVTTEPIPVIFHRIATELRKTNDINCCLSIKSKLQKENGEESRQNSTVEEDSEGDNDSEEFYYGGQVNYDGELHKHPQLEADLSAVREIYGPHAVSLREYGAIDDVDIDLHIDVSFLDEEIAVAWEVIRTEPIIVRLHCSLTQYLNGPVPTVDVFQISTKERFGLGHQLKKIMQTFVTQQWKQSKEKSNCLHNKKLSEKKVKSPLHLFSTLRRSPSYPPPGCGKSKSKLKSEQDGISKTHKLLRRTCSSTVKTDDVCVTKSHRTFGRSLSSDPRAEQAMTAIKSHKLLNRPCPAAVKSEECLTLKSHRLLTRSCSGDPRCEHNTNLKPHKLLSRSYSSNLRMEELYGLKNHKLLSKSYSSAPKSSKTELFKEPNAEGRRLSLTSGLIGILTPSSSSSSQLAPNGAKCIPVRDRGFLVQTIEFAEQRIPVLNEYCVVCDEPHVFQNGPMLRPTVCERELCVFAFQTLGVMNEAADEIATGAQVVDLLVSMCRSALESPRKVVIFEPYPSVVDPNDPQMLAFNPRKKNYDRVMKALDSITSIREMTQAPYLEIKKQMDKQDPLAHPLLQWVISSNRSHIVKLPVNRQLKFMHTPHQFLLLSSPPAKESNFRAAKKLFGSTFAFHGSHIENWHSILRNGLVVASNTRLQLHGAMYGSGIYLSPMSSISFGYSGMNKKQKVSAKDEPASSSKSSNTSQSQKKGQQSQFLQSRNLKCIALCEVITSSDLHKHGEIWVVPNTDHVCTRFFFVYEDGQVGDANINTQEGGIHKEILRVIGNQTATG", "assay": "PASTA biochemical PARP screening assay, PARP8"}, "PARP11": {"biological_target": "PARP11 (Homo sapiens (Human), UniProt Q9NR21)", "sequence (Q9NR21 whole entry, species assumed)": "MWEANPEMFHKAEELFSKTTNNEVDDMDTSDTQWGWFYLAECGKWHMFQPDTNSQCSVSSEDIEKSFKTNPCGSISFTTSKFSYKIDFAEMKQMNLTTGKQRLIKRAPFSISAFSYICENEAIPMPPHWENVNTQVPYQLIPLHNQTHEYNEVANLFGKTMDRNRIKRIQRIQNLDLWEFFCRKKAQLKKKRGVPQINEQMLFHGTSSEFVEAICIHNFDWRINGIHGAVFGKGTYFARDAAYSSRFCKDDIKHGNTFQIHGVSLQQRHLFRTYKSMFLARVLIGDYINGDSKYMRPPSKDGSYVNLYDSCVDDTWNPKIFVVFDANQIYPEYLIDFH", "assay": "PASTA biochemical PARP screening assay, PARP11"}, "PARP2 [1]": {"biological_target": "T1, PARP2 (Homo sapiens (Human), UniProt Q9UGN5)", "T1 sequence (Q9UGN5 whole entry)": "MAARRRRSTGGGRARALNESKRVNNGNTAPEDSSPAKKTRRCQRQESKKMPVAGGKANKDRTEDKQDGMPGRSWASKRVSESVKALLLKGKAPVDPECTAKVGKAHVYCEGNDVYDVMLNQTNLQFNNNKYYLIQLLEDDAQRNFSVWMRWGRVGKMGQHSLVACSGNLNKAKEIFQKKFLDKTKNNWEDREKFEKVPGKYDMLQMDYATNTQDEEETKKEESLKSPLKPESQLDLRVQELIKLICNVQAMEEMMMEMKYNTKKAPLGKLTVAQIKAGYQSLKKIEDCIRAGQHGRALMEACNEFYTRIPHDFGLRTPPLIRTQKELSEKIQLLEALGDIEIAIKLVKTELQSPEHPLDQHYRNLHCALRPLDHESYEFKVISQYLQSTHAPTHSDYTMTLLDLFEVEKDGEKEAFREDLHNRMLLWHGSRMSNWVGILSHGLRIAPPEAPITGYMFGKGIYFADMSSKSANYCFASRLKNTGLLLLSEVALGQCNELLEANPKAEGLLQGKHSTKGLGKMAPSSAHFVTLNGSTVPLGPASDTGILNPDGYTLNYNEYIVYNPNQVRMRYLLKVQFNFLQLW", "assay": "PASTA biochemical PARP screening assay, PARP2"}, "GST-tagged PARP7": {"biological_target": "GST-tagged PARP7 (Homo sapiens (Human), UniProt Q7Z3E1)", "sequence (Q7Z3E1 whole entry)": "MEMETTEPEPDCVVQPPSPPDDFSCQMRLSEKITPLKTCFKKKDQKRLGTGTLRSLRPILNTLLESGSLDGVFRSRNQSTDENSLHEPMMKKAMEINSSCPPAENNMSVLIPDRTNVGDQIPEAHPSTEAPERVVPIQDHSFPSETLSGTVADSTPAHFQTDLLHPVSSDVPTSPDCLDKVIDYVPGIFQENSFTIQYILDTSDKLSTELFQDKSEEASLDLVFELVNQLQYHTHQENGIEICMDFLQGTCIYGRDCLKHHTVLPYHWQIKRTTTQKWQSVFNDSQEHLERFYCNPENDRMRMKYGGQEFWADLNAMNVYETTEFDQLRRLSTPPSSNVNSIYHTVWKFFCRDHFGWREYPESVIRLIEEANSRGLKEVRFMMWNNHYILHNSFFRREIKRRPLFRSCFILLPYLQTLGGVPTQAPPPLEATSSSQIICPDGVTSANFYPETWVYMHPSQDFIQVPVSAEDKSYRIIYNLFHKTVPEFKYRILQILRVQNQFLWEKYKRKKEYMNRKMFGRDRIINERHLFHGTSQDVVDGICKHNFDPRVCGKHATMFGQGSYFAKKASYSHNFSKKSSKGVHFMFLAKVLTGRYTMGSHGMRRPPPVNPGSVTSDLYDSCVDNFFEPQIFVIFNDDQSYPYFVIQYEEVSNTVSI", "assay": "PASTA biochemical PARP screening assay, PARP7", "experimental": "GST-tagged PARP7 was expressed and purified as previously described (Hutin et al., 2018). Proteins were quantified by an in-gel standard curve of Bovine Serum Albumin (Bio-Rad). For PARP7, 250 ng of PARP7 was adhered to glutathione coated 96-well plates (Thermo Scientific) in PBR for 60 min at RT. […] After washing, varying concentrations of each inhibitor was pre-incubated with 20 μM (2×) 6-a-NAD^+. The solution was added to the plate, diluted to 1× in PBR, and incubated at 30° C. for 60 min. […] The plate was subsequently washed three times in PBST and once in PBS before incubation with Strep-HRP (300 ng/μl BSA, 0.05 ng/μl Strep-HRP (Jackson ImmunoResearch), 1×PBS) for 30 min at RT. The plate was washed three time in PBST and once in PBS before development with QuantaRed Enhanced Chemifluorescent HRP Substrate as described previously."}, "PARP1": {"biological_target": "PARP1 (Homo sapiens (Human), UniProt P09874)", "sequence (P09874 whole entry, species assumed)": "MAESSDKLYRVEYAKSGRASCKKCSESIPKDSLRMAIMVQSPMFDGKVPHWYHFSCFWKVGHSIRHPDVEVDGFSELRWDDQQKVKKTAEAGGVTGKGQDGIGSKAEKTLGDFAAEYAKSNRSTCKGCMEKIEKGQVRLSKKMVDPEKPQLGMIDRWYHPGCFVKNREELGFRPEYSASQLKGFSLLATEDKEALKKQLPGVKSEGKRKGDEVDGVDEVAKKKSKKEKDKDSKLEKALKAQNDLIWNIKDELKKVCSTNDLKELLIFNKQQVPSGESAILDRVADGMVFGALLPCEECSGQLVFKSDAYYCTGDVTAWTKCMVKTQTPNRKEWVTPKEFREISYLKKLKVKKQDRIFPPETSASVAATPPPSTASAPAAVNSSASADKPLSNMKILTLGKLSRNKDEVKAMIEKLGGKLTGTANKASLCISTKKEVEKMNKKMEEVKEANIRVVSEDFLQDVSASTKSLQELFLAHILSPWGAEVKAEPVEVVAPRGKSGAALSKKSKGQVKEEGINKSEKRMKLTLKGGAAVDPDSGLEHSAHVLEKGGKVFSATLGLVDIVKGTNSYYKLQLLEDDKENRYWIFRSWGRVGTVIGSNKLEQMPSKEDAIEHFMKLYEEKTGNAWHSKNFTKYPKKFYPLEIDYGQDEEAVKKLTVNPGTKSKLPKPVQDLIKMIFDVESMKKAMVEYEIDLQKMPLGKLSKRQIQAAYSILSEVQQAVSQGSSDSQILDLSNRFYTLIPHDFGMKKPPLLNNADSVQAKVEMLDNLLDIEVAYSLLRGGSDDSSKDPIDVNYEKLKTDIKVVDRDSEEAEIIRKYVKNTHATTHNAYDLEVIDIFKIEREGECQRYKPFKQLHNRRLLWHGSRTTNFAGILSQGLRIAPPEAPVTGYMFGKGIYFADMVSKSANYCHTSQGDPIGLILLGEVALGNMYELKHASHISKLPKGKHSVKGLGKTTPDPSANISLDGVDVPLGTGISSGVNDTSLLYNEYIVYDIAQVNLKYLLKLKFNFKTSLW", "assay": "PASTA biochemical PARP screening assay, PARP1"}, "PARP6": {"biological_target": "PARP6 (Homo sapiens (Human), UniProt Q2NL67)", "sequence (Q2NL67 whole entry, species assumed)": "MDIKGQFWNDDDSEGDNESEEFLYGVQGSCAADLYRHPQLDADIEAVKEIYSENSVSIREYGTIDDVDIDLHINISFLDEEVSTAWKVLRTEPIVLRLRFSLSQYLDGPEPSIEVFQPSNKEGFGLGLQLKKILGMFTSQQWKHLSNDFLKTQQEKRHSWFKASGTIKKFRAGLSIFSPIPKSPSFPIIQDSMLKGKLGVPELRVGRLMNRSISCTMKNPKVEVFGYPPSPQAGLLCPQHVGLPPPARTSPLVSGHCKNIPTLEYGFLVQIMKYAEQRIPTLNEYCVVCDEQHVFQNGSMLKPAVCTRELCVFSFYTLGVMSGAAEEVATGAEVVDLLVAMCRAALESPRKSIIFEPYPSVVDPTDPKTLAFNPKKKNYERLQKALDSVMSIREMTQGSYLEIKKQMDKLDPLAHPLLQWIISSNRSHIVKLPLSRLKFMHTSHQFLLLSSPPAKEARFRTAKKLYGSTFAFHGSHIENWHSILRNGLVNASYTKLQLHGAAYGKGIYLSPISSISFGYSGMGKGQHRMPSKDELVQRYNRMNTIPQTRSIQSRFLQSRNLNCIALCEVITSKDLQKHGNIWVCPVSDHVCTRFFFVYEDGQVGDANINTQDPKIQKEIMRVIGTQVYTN", "assay": "PASTA biochemical PARP screening assay, PARP6"}, "PARP15cat": {"biological_target": "PARP15cat (Homo sapiens (Human), UniProt Q460N3)", "sequence (Q460N3 482-678)": "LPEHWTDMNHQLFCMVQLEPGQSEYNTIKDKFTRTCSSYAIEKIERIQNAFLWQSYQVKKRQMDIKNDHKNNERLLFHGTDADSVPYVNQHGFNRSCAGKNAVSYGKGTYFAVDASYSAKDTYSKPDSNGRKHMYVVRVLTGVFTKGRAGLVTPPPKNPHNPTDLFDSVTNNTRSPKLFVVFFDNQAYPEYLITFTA", "assay": "PASTA biochemical PARP screening assay, PARP15cat"}, "PARP2 [2]": {"biological_target": "T1, PARP2", "assay": "PARP2 biochemical assay", "conditions": "read-out: PARP2 IC50"}, "PARP16": {"biological_target": "PARP16 (Homo sapiens (Human), UniProt Q8N5Y8)", "sequence (Q8N5Y8 whole entry, species assumed)": "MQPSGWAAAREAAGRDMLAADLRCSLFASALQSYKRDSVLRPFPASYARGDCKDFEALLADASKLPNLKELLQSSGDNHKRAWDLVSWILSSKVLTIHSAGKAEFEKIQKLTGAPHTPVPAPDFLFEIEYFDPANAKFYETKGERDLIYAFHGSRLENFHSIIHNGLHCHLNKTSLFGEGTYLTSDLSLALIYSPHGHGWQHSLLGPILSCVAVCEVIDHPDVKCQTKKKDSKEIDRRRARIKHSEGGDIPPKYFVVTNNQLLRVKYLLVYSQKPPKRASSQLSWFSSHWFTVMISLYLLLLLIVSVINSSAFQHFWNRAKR", "assay": "PASTA biochemical PARP screening assay, PARP16"}, "PARP12cat": {"biological_target": "PARP12cat (Homo sapiens (Human), UniProt Q9H0J9)", "sequence (Q9H0J9 484-698)": "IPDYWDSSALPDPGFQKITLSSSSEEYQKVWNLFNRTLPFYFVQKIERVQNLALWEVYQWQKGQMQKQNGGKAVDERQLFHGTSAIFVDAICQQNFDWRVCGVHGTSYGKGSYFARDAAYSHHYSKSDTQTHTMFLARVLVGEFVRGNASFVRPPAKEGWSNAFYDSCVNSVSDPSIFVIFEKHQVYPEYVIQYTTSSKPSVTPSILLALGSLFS", "assay": "PASTA biochemical PARP screening assay, PARP12cat"}, "[3]": {"tested_on": "CT26 (mouse colon adenocarcinoma) cells", "assay": "Cell proliferation assay (CellTiter-Glo), CT26", "assay_type": "cell-based", "conditions": "Mus musculus, CT26, 144 h, 6 days"}, "IFN-β mRNA": {"tested_on": "IFN-β mRNA", "assay": "IFN-β mRNA by RT-qPCR in MEFs", "assay_type": "cell-based, mouse", "conditions": "100 nM alone"}, "[4]": {"tested_on": "AHR ligand-mediated gene transcription", "assay": "CYP1A1 mRNA by qPCR in mouse embryonic fibroblasts", "assay_type": "cell-based", "conditions": "MEFs, with or without AHR agonist TCDD", "experimental": "FIG. 2A provides CYP1A1 mRNA levels assessed by qPCR after treatment of wild type (WT) MEFs with increasing concentrations of Example 10 in the presence (gray bars) or absence (black bars) of the AHR agonist TCDD (1 nM). FIG. 2B provides the same as in FIG. 2A except with PARP7^−/− MEFs. FIG. 2C provides CYP1A1 mRNA levels assessed by qPCR after treatment of wild type (WT) MEFs with increasing concentrations of TCDD in the presence (gray bars) or absence (black bars) of 100 nM Example 10. FIG. 2D provides the same as in FIG. 2C, except with PARP7−/− MEFs."}, "PARP3": {"biological_target": "PARP3 (Homo sapiens (Human), UniProt Q9Y6F1)", "assay": "PASTA biochemical PARP screening assay, PARP3", "quoted_text": "For PARP3, PARP4bc, and PARP16, 200-350 ng of PARP was directly adhered to nickel coated 96-well plates for 60 min at 25° C. in PBR PARP3 was activated by Dnick 5'P as previously described (Langelier, Marie-France et al. Nucleic acids research vol. 42, 12 (2014): 7762-75.). The plate was washed three times with PBST, once with PBS, and once with PBR. Varying concentrations of inhibitor were pre-incubated with NAD^+ and added to the plate (final NAD^+ concentration: 100 μM for PARP3, PARP4bc; 400 μM for PARP16). The plate was incubated at 30° C. for 60 min, then washed three times with PBST before blocking with 5% Milk in PBST. […] The plate was then washed three times with PBST and once with PBS before developing as described previously."}, "[5]": {"tested_on": "NCI-H1373 (human lung adenocarcinoma) cells", "assay": "Cell proliferation assay (CellTiter-Glo), NCI-H1373", "assay_type": "cell-based", "conditions": "Homo sapiens, NCI-H1373, 144 h; 6 days, CellTiter-Glo; read-out: NCI-H1373 GI50"}, "GFP-PARP7": {"biological_target": "GFP-PARP7 (Homo sapiens (Human), UniProt Q7Z3E1)", "sequence (Q7Z3E1 whole entry)": "as the sequence (Q7Z3E1 whole entry) above", "assay": "PARP7 MARylation in GFP-PARP7 expressing HEK 293T cells (western blot)", "assay_type": "cell-based", "conditions": "read-out: EC50, decrease in PARP7 MARylation"}, "NCI-H1373 cells": {"tested_on": "NCI-H1373 cells", "assay": "Cell Titer-Glo viability, NCI-H1373", "assay_type": "cell-based", "experimental": "NCI-H1373 cells were seeded in a white 96-well plate (Corning) at a density of 1,000 cells per well. After 24 hours, cells were treated with PARP7 inhibitors and incubated at 37° C. for 6 days. Cell viability was assessed using CellTiter-Glo (CTG) 2.0 (Promega). After addition of the CTG reagent (following manufacturer protocol), the plate was incubated on an orbital shaker for 15 min (protected from light) at room temperature. Chemiluminescence was measured on a Spectra Max i3 (Molecular Devices), normalized to DMSO-treated wells, and IC50 values were calculated by non-linear regression (three-parameter fit) analysis using Prism 9 (GraphPad)."}, "PARP14wwe": {"biological_target": "PARP14wwe (Homo sapiens, UniProt Q460N5)", "assay": "PASTA biochemical PARP screening assay, PARP14wwe"}, "AHR target gene CYP1A1": {"tested_on": "AHR target gene CYP1A1", "assay": "CYP1A1 mRNA (AHR target gene) by RT-qPCR in MEFs", "assay_type": "cell-based, mouse", "conditions": "WT MEFs"}, "[6]": {"tested_on": "HARA (human lung squamous cell carcinoma) cells", "assay": "Cell proliferation assay (CellTiter-Glo), HARA", "assay_type": "cell-based", "conditions": "Homo sapiens, 144 h; 6 days, CellTiter-Glo; read-out: HARA GI50"}, "PARP10": {"biological_target": "PARP10 (Homo sapiens (Human), UniProt Q53GL7)", "assay": "PASTA biochemical PARP screening assay, PARP10"}}, "note": "Read-outs that look alike come from different tables or passages of the source."}
{"compound": "CC#Cc1ccc2c(=O)[nH]nc(Cc3ccc(F)c(C(=O)N4CCN(c5ccc(C#N)cn5)CC4)c3)c2c1", "note": "[Example 10, 6-(4-(2-Fluoro-5-((4-oxo-7-(prop-1-ynyl)-3,4-dihydrophthalazin-1-yl)methyl)benzoyl)piperazin-1-yl)nicotinonitrile]", "values": [{"measurement": "IC50", "setting": "PARP4bc", "result": "> 3000", "unit": "nM"}, {"measurement": "IC50", "setting": "PARP8", "result": "> 3000", "unit": "nM"}, {"measurement": "IC50", "setting": "PARP11", "result": 134, "unit": "nM"}, {"measurement": "IC50", "setting": "PARP2 [1]", "result": 1020, "unit": "nM"}, {"measurement": "IC50", "setting": "GST-tagged PARP7", "result": 13.7, "unit": "nM"}, {"measurement": "selectivity for PARP7 over PARP2", "setting": "GST-tagged PARP7", "result": "~75", "unit": "fold"}, {"measurement": "selectivity for PARP7 over PARP10 and PARP11", "setting": "GST-tagged PARP7", "result": "~10", "unit": "fold"}, {"measurement": "selectivity for PARP7 over most PARP family members beyond PARP1 and PARP2", "setting": "GST-tagged PARP7", "result": "> 50", "unit": "fold"}, {"measurement": "IC50", "setting": "PARP1; read-out: IC50 PARP1", "result": "> 3000", "unit": "nM"}, {"measurement": "IC50", "setting": "PARP1; read-out: does not inhibit PARP1 up to", "result": "> 3000", "unit": "nM"}, {"measurement": "IC50", "setting": "PARP6", "result": 775, "unit": "nM"}, {"measurement": "IC50", "setting": "PARP15cat", "result": 770, "unit": "nM"}, {"measurement": "IC50", "setting": "PARP2 [2]", "result": "100 to 500", "unit": "nM"}, {"measurement": "IC50", "setting": "PARP16", "result": 1060, "unit": "nM"}, {"measurement": "IC50", "setting": "PARP12cat", "result": 762, "unit": "nM"}, {"measurement": "GI50", "setting": "[3]", "result": "> 5000", "unit": "nM"}, {"measurement": "increase in IFN-β mRNA", "setting": "IFN-β mRNA", "result": 3, "unit": "fold"}, {"measurement": "AHR ligand-mediated gene transcription (CYP1A1 mRNA)", "setting": "[4]", "result": "derepresses AHR ligand-mediated gene transcription"}, {"measurement": "IC50", "setting": "PARP3", "result": "> 3000", "unit": "nM"}, {"measurement": "GI50", "setting": "[5]", "result": "< 100", "unit": "nM"}, {"measurement": "EC50", "setting": "GFP-PARP7", "result": 8, "unit": "nM"}, {"measurement": "less potent than RBN-2397 on NCI-H1373", "setting": "NCI-H1373 cells", "result": "~6", "unit": "fold"}, {"measurement": "EC50", "setting": "NCI-H1373 cells; Homo sapiens, NCI-H1373, 144 h, 6 days, CellTiter-Glo", "result": 104, "unit": "nM"}, {"measurement": "IC50", "setting": "PARP14wwe", "result": 1040, "unit": "nM"}, {"measurement": "CYP1A1 mRNA levels", "setting": "AHR target gene CYP1A1; in the absence of TCDD", "result": "had no effect on CYP1A1 mRNA levels"}, {"measurement": "CYP1A1 mRNA levels", "setting": "AHR target gene CYP1A1; in the presence of 1 nM TCDD", "result": "dramatically increased CYP1A1 mRNA levels"}, {"measurement": "GI50", "setting": "[6]", "result": "1000 to 5000", "unit": "nM"}, {"measurement": "IC50", "setting": "PARP10", "result": 179, "unit": "nM"}]}
